Assay [1] has as its target PDE10A (Homo sapiens, UniProt Q9Y233). Nature of the assay: PDE10A inhibition, [3H]cAMP hydrolysis scintillation proximity assay. The class given is biochemical.
Assay [2] deals with R6/2 mice. Conditions: behavioural symptoms such as rotarod performance improved; cited from earlier work.

PDE10A, sequence (Q9Y233 whole entry): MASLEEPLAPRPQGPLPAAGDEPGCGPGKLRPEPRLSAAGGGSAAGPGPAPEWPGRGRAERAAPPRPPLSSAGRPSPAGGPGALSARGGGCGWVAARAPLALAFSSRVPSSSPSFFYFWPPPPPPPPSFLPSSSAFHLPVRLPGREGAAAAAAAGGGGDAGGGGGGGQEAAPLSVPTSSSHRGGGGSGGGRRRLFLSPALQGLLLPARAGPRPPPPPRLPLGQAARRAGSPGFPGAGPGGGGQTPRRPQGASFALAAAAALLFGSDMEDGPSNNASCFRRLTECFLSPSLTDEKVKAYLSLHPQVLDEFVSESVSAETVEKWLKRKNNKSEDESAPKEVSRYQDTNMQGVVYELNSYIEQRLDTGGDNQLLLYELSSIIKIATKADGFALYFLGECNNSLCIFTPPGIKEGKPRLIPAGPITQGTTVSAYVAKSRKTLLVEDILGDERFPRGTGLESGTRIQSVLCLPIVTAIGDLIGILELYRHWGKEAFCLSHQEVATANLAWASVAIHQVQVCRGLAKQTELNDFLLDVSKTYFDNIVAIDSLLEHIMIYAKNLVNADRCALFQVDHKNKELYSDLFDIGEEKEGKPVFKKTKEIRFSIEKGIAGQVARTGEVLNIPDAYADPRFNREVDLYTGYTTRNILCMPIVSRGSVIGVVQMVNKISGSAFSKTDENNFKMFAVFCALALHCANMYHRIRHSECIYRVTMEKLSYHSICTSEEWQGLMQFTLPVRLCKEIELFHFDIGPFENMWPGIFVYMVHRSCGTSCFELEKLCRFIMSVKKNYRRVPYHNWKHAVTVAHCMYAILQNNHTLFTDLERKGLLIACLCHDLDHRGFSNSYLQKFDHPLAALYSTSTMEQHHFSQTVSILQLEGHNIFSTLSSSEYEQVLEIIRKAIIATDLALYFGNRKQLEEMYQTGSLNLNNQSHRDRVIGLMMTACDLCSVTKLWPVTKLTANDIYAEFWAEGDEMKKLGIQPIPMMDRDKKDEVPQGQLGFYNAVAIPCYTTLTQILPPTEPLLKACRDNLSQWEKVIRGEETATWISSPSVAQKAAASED

For the molecule `COc1cc(CSc2ccc(-c3nn(C)cc3-c3ccncc3)cc2)nc2ccccc12` [Compound 10g], in assay [1] (IC50 versus the corresponding O-atom bridged analogue 10b), the “fold less potent for PDE10A than 10b” value came to 600 fold.

On to `COc1cccc2ccc(COc3ccc(-c4c(-c5ccncc5)cnn4C)cc3)nc12` [Compound 11f], for which the “fold higher PDE10A IC50 value than 11e” value in assay [1] (IC50 of 8-methoxy 11f versus 7-methoxy 11e) turned out to be 2 fold.

On to `FC(F)(F)Cn1cc(-c2ccncc2)c(-c2ccc(OCc3ccc4ccccc4n3)cc2)n1` [TP-10, 2-[4-[pyridin-4-yl-1-(2,2,2-trifluoroethyl)-1H-pyrazol-3-yl]-phenoxymethyl]-quinoline], for which the “neuropathology and symptoms in R6/2 mice” value in assay [2] is listed as “ameliorated”.

The values above are taken from article PMC3625062 (MedChemComm, 2012).
